For three compounds, IC50 results are on record in patent US8703723B2, “Glycoside compounds and pharmaceutical compositions thereof” (Centrose, LLC, priority 2009, dated 2014).

A word on the IC50: it is the midpoint of a concentration-inhibition curve.

The test system of test [1] is A549 (NSCLC) cell line. The experiment in a line: Cancer cell cytotoxicity assay (Calcein AM / Cell Titer-Glo), A549. Format: cell-based, human. The following applies: NSCLC. As for the experimental part: (§1) Compounds of the invention and comparative compounds were assayed in three cancer cell lines to confirm cytotoxic activity and to set a range of concentrations to use in subsequent assays. All cell lines were maintained in RPMI medium 1640 supplemented with 10% (wt/vol) fetal bovine serum and penicillin-streptomycin (100 units/ml and 100 μg/ml). Cells were routinely checked for microbial or mycoplasma contamination and if necessary replaced. Cells were harvested by trypsinization using 0.25% trypsin and 0.1% EDTA and then counted in a ViCell XR coulter counter in duplicate, before and after dilution for assay plating. Between four to nine different types of human cancer cells were plated at a density of 10,000-15,000 cells per well of each 96-well black tissue culture treated microtiter plate, then were grown for 1 hour at 37° C. with 5% CO2/95% air in a humidified incubator to allow cells to attach before compound addition. Compound stocks (100×) were prepared in 96-well V-bottom polypropylene microtiter plates. Five serial (1:2) dilutions were made with anhydrous DMSO at 100× the final concentration used in the assay. The individual wells in compound-containing […] well plates were diluted 1:10 with complete cell culture medium and the 10× (10 μL) stocks were added to 90 μl of cells in each plate to ensure full mixing of stocks with culture media by using a Biomek FX liquid handler with 96-well head. Doxorubicin was used as the control to monitor the behavior of each cell line. Cells were incubated with the compounds for 3 to 4 days before fluorescence and luminescence reading. Test plates were removed from the incubator and washed once in sterile PBS to remove serum containing calcium esterases. Calcein AM (acetoxymethyl ester) reagent was added and the cells were incubated for 30 min at 37° C. Plates were read for emission by using a fluorescein filter (excitation 485 nm, emission 535 nm). An equal volume (30 μL) of Cell Titer-Glo reagent (Promega Corporation, Inc.) was added and incubated for 10 min at room temperature with gentle agitation to lyse the cells. Each plate was re-read for luminescence to confirm the inhibition observed in the fluorescent […] assay as a measure of cell viability. The cancer cell cytotoxicity assays were run in triplicate using ≧5 different drug concentrations, and the data were analyzed to establish statistical significance and a valid IC50 value for inhibition of cell growth, based on ≧2 log differences in drug effect.
(§2) The cancer cell cytotoxicities (determined substantially according to the method of Example 5) of various compounds of the invention and comparative compounds as determined in four to five different human cancer cell lines are shown in Table 1. The structures of the compounds listed are found in FIGS. 2-4.

In a further test the test system is H1299 (NSCLC) cell line. The experiment in a line: Cancer cell cytotoxicity assay (Calcein AM / Cell Titer-Glo), H1299. Format: cell-based, human. The note with it: NSCLC. The procedure:
as §1, §2

The subject of test [2] is NCI-H460 (NSCLC) cell line. The experiment in a line: Cancer cell cytotoxicity assay (Calcein AM / Cell Titer-Glo), NCI-H460. The following applies: NSCLC. In kind it is cell-based, human. As for the experimental part: as §1, §2
The test system of test [3] is HT29 (Colorectal) cell line. Kind of test: Cancer cell cytotoxicity assay (Calcein AM / Cell Titer-Glo), HT29. In kind it is cell-based, human. The following applies: Colorectal. As for the experimental part:
as §1, §2

The test system of test [4] is SKOV3 (Ovarian) cell line. Kind of test: Cancer cell cytotoxicity assay (Calcein AM / Cell Titer-Glo), SKOV3. In kind it is cell-based, human. The note with it: Ovarian. As for the experimental part: as §1, §2
The test system of test [5] is A549 (NSCLC) cell line. The note with it: footnote 2: data from Langenhan et al. 2005; cited from earlier work.
The test system of test [6] is NCI-H460 (NSCLC) cell line. The following applies: footnote 2: data from Langenhan et al. 2005; cited from earlier work.
For test [7], the system named is SKOV3 (Ovarian) cell line. The note with it: footnote 2: data from Langenhan et al. 2005; cited from earlier work.
The mark [8] stands for this setting: footnote 3: determined at same time as CEN07-117 and -121.
Setting [9] is: footnote 5: determined at same time as CEN08-193.
[10] abbreviates: footnote 7: determined at same time as CEN08-180.
Setting [11] is: footnote 4: determined at same time as CEN08-177 and -178.
Where [12] appears, read: footnote 6: determined at same time as CEN08-243 and -244.

Molecules are shown by their SMILES. Where two headings read alike, the source gives them in different places.

Take `CON(C1CCC2(C)C(CCC3C2CCC2(C)C(C4=CC(=O)OC4)CCC32O)C1)C1OCC(O)C(O)C1O` [CEN07-W-101 (23S), reference compound]: the IC50 in the test with A549 (NSCLC) cell line [1] (setting [8]) was 50 nM; in the test on A549 (NSCLC) cell line [1] (setting [9]) it was 4 nM; in the test on A549 (NSCLC) cell line [1] (setting [10]) it was 9 nM; in the test with H1299 (NSCLC) cell line (assay set not specified), 17 nM; in the test with H1299 (NSCLC) cell line (setting [8]), 170 nM; in the test with H1299 (NSCLC) cell line (setting [9]) it was 6 nM. The IC50 in test [2] (setting [8]) was 150 nM; in test [2] (setting [9]), 8 nM; in test [2] (setting [10]) it was 37 nM; in test [3] (setting [8]), 100 nM; in test [3] (setting [9]), 9 nM; in test [3] (setting [10]) it was 46 nM. The half-inhibitory concentration (IC50) in test [4] (setting [9]) is 39 nM; in test [4] (setting [10]) it was 51 nM; in the test with A549 (NSCLC) cell line [5] it was 79 nM; in test [6], 80 nM; in test [7], 220 nM.

Consider `CON(C1CCC2(C)C(CCC3C2CCC2(C)C(C4=CC(=O)OC4)CCC32O)C1)C1OCC(O)C(O)C1O` [CEN07-W-102 (5S), reference compound], for which the concentration for half-maximal inhibition (IC50) in the test on A549 (NSCLC) cell line [1] (setting [8]) is 40 nM; in the test on A549 (NSCLC) cell line [1] (setting [11]), 10 nM; with A549 (NSCLC) cell line [1] (setting [9]), 3 nM; in the test with A549 (NSCLC) cell line [1] (setting [12]) it was 17 nM; with A549 (NSCLC) cell line [1] (setting [10]), 8 nM; in the test with H1299 (NSCLC) cell line (assay set not specified), 9 nM. In addition, the concentration for half-maximal inhibition (IC50) is 110 nM in the test on H1299 (NSCLC) cell line (setting [8]); 20 nM in the test with H1299 (NSCLC) cell line (setting [11]); 6 nM in the test on H1299 (NSCLC) cell line (setting [9]); 20 nM in the test on H1299 (NSCLC) cell line (setting [12]); 110 nM in test [2] (setting [8]); 10 nM in test [2] (setting [11]). For the same compound, the IC50 was 5 nM in test [2] (setting [9]); 15 nM in test [2] (setting [12]); 24 nM in test [2] (setting [10]); 20 nM in test [3] (assay set not specified); 120 nM in test [3] (setting [8]); 7 nM in test [3] (setting [9]). The IC50 was 33 nM in test [3] (setting [10]); 310 nM in test [4] (assay set not specified); 40 nM in test [4] (setting [11]); 26 nM in test [4] (setting [9]); 25 nM in test [4] (setting [12]); 36 nM in test [4] (setting [10]). The 50% inhibitory concentration (IC50) was 33 nM in the test on A549 (NSCLC) cell line [5], 53 nM in test [6] and 45 nM in test [7].

As to `C[C@H]1O[C@@H](O[C@H]2[C@@H](O)C[C@H](O[C@H]3[C@@H](O)C[C@H](O[C@H]4CC[C@@]5(C)[C@H](CC[C@@H]6[C@@H]5CC[C@]5(C)[C@@H](C7=CC(=O)OC7)CC[C@]65O)C4)O[C@@H]3C)O[C@@H]2C)C[C@H](O)[C@@H]1O` [Digitoxin], the values for the concentration for half-maximal inhibition (IC50) (with A549 (NSCLC) cell line [5]; in test [6]; in test [7]) were 280 nM, 280 nM and 700 nM, respectively.
